Source: patent US8815503B2, “Compositions and methods for immunostimulatory RNA oligonucleotides” (Rheinische Friedrich-Wilhelms-Universitat Bonn, priority 2005, dated 2014)

Tested on: PBMC
Assay: 193 ssRNA 4mer-motif library screen: IL-12 (IL-12p40) production in PBMC of six donors, poly-L-Arg complexation, ELISA at 44 hours, IL-12 index and adjusted IL-12 index
Assay type: cell-based, human
Set-up: key to Adjusted IL-12 index Mean: IL-12 index (ratio to 9.2sense) minus donor mean, averaged over 6 donors
Details: for Adjusted IL-12 index Mean: 193 ssRNA oligonucleotide library, data from six individual donors summarized, ascending order; for adjusted IL-12 index: summarized from all six donors
Description: FIG. 9: PBMC of six different healthy donors were isolated and stimulated with poly-L-arginine complexed ssRNA oligonucleotides in duplicates. 44 hours after stimulation IL-12p40 production was assessed in supernatant via ELISA. For all tested ssRNA oligonucleotides (table 3), the mean values of the measured duplicates were normalized to the positive control ssRNA oligonucleotide 9.2sense (5′-AGCUUAACCUGUCCUUCAA (SEQ ID NO: 194)) by dividing the mean value of tested oligonucleotide by the mean value of 9.2sense (=IL-12 index of a given oligonucleotide). Next, all individual IL-12 indices were adjusted to the mean value of all IL-12 indices by subtracting the mean value of all IL-12 indices from the individual IL-12 index of a given oligonucleotide (=adjusted IL-12 index). Data from six individual donors were summarized and were assorted in ascending order displaying the corresponding SEM (for a complete listing including numerical data see table 4). FIG. 9A discloses SEQ ID NOS 460-509, respectively, in order of appearance. FIG. 9B discloses SEQ ID NOS 510-559, respectively, in order of appearance. FIG. 9C discloses SEQ ID NOS 560-609, respectively, in order of appearance. FIG. 9D discloses SEQ ID NOS 610-652, respectively, in order of appearance.
All 193 ssRNA oligonucleotides were tested on PBMC of six individual healthy donors using poly-L-Arg for complexation. At 44 hours after stimulation with RNA oligonucleotides, supernatants were collected and IL-12 production was measured by ELISA. Prior to statistical analysis the raw data were processed as follows: for each cell culture plate the mean IL-12 value of the experimental duplicates for each tested ssRNA oligonucleotide were normalized to the ssRNA oligonucleotide RNA9.2sense (5′-AGCUUAACCUGUCCUUCAA-3′ (SEQ ID NO: 194)). This standard RNA oligonucleotide was included as a positive control on all cell culture plates. Normalization was performed by calculating the ratio of IL-12 induced by the tested oligonucleotide and IL-12 induced by the standard oligonucleotide RNA9.2sense. Thus, for each tested oligonucleotide in an individual donor a mean ratio of IL-12 induction was obtained. In the following, this mean of the ratios is referred to as IL-12 index (one value of IL-12 index per donor). […] The corresponding IL-12 index of oligonucleotide ANP175 for donor 3 was calculated to be 1.90 (=1725 pg/ml divided by 908 pg/ml).
Next, the means of all IL-12 indices for every individual donor were calculated. Then the adjusted IL-12 indices were calculated as IL-12 index minus the mean of all IL-12 indices of one individual donor. […] The adjusted IL-12 index of ANP175 was calculated: 1.90 minus 0.44=1.46. The adjusted IL-12 indices from all six donors were summarized by calculating the means and the corresponding standard error of mean. The data are depicted in ascending order (FIG. 9A, B, C, D). The adjusted IL-12 indices of the top thirty ssRNA oligonucleotides of all six donors were compared using a two-tailed Student's t-test (FIG. 10). For most combinations tested, a significant difference was observed when the interval between the analyzed pairs was at least eight or nine places in the assortment.

Sequence	Adjusted IL-12 index Mean	adjusted IL-12 index
AAAAAAAAUUUAAAAAAAA (RNA, backbone not given here) [ANP-Oligo 049]	−0.07	
AAAAAAAGAACAAAAAAAA (RNA, backbone not given here) [ANP-Oligo 098]	−0.6	
AAAAAAAGAGCAAAAAAAA (RNA, backbone not given here) [ANP-Oligo 104]	−0.61	
AAAAAAAAGCGAAAAAAAA (RNA, backbone not given here) [ANP-Oligo 030]	−0.6	
AAAAAAAACUCAAAAAAAA (RNA, backbone not given here) [ANP-Oligo 023]	−0.41	
AAAAAAAUCGUAAAAAAAA (RNA, backbone not given here) [ANP-Oligo 166]	4.42	4.42
AAAAAAAACGCAAAAAAAA (RNA, backbone not given here) [ANP-Oligo 020]	−0.66	
AAAAAAACAGCAAAAAAAA (RNA, backbone not given here) [ANP-Oligo 056]	−0.54	
AAAAAAACCCCAAAAAAAA (RNA, backbone not given here) [ANP-Oligo 065]	−0.59	
AAAAAAAUUGGAAAAAAAA (RNA, backbone not given here) [ANP-Oligo 189]	0.66	
AAAAAAAUGGCAAAAAAAA (RNA, backbone not given here) [ANP-Oligo 176]	2.41	
AAAAAAACGCCAAAAAAAA (RNA, backbone not given here) [ANP-Oligo 077]	−0.62	
AAAAAAAGUGCAAAAAAAA (RNA, backbone not given here) [ANP-Oligo 140]	0.99	
AAAAAAAUUUCAAAAAAAA (RNA, backbone not given here) [ANP-Oligo 191]	0.27	
AAAAAAAUAUCAAAAAAAA (RNA, backbone not given here) [ANP-Oligo 155]	0.33	
AAAAAAAGAGGAAAAAAAA (RNA, backbone not given here) [ANP-Oligo 105]	−0.62	
AAAAAAAGGAUAAAAAAAA (RNA, backbone not given here) [ANP-Oligo 124]	0.63	
AAAAAAAAUACAAAAAAAA (RNA, backbone not given here) [ANP-Oligo 038]	−0.32	
AAAAAAAUAGUAAAAAAAA (RNA, backbone not given here) [ANP-Oligo 154]	1.57	1.57
AAAAAAAGGAGAAAAAAAA (RNA, backbone not given here) [ANP-Oligo 123]	−0.51	
AAAAAAACAUUAAAAAAAA (RNA, backbone not given here) [ANP-Oligo 061]	−0.23	
AAAAAAAACCCAAAAAAAA (RNA, backbone not given here) [ANP-Oligo 017]	−0.66	
AAAAAAACUCUAAAAAAAA (RNA, backbone not given here) [ANP-Oligo 091]	−0.33	
AAAAAAAGGCCAAAAAAAA (RNA, backbone not given here) [ANP-Oligo 125]	−0.54	
AAAAAAACCAUAAAAAAAA (RNA, backbone not given here) [ANP-Oligo 064]	−0.38	
AAAAAAACUGCAAAAAAAA (RNA, backbone not given here) [ANP-Oligo 092]	0	
AAAAAAAUGAGAAAAAAAA (RNA, backbone not given here) [ANP-Oligo 171]	0.22	

Sequence	Adjusted IL-12 index Mean	adjusted IL-12 index
AAAAAAAAGCUAAAAAAAA (RNA, backbone not given here) [ANP-Oligo 031]	−0.32	
AAAAAAAUAAGAAAAAAAA (RNA, backbone not given here) [ANP-Oligo 147]	0.27	
AAAAAAAUCCCAAAAAAAA (RNA, backbone not given here) [ANP-Oligo 161]	−0.42	
AAAAAAAUUCCAAAAAAAA (RNA, backbone not given here) [ANP-Oligo 185]	−0.08	
AAAAAAAUGUUAAAAAAAA (RNA, backbone not given here) [ANP-Oligo 181]	0.79	
AAAAAAAGUUCAAAAAAAA (RNA, backbone not given here) [ANP-Oligo 143]	0.56	
AAAAAAAGUCCAAAAAAAA (RNA, backbone not given here) [ANP-Oligo 137]	−0.27	
AAAAAAAACUGAAAAAAAA (RNA, backbone not given here) [ANP-Oligo 024]	−0.48	
AAAAAAAACUUAAAAAAAA (RNA, backbone not given here) [ANP-Oligo 025]	−0.31	
AAAAAAACUUUAAAAAAAA (RNA, backbone not given here) [ANP-Oligo 097]	−0.1	
AAAAAAACGUCAAAAAAAA (RNA, backbone not given here) [ANP-Oligo 083]	−0.27	
AAAAAAACUAGAAAAAAAA (RNA, backbone not given here) [ANP-Oligo 087]	−0.03	
AAAAAAAGGACAAAAAAAA (RNA, backbone not given here) [ANP-Oligo 122]	−0.43	
AAAAAAACAGUAAAAAAAA (RNA, backbone not given here) [ANP-Oligo 058]	0.22	
AAAAAAAUAGGAAAAAAAA (RNA, backbone not given here) [ANP-Oligo 153]	0.42	
AAAAAAAGCGGAAAAAAAA (RNA, backbone not given here) [ANP-Oligo 117]	−0.63	
AAAAAAAUUAGAAAAAAAA (RNA, backbone not given here) [ANP-Oligo 183]	0.27	
AAAAAAAUUCUAAAAAAAA (RNA, backbone not given here) [ANP-Oligo 187]	0.18	
AAAAAAAAUUAAAAAAAAA (RNA, backbone not given here) [ANP-Oligo 013]	−0.09	
AAAAAAAAUCAAAAAAAAA (RNA, backbone not given here) [ANP-Oligo 011]	−0.43	
AAAAAAAUUACAAAAAAAA (RNA, backbone not given here) [ANP-Oligo 182]	0.11	
AAAAAAAGUCGAAAAAAAA (RNA, backbone not given here) [ANP-Oligo 138]	0.02	
AAAAAAAUGUGAAAAAAAA (RNA, backbone not given here) [ANP-Oligo 180]	1.31	
AAAAAAACGCUAAAAAAAA (RNA, backbone not given here) [ANP-Oligo 079]	−0.09	
AAAAAAACAUCAAAAAAAA (RNA, backbone not given here) [ANP-Oligo 059]	−0.48	
AAAAAAACCUCAAAAAAAA (RNA, backbone not given here) [ANP-Oligo 071]	−0.56	
AAAAAAAACAGAAAAAAAA (RNA, backbone not given here) [ANP-Oligo 015]	−0.65	
